Literature values in PMC10655862 (Methods in enzymology, 2023).
Read-outs that look alike come from different tables or passages of the source.

Assays:
[1] = system: AKR1D1; details: 5β-reduction, fluorometric, pH 6.0, 37 °C; ref Chen et al., (2011)
[2] = molecular target: aldose reductase AKR1B1; details: NADPH binding to AKR1B1, literature comparison; ref not given
[3] = system: AKR1D1 (5β-reductase); details: ref Chen et al., (2011); for Type of inhibition (5β-reductase): inhibition of testosterone reduction; for inhibition of AKR1D1, in words: reduction of [4-14C]-testosterone
[4] = molecular target: AKR1C1; details: AKR1C1, competitive inhibition (C); ref Bauman et al. (2005)
[5] = molecular target: AKR1C3; details: AKR1C3, competitive inhibition (C); ref Bauman et al. (2005)
[6] = molecular target: AKR1C2; details: AKR1C2, competitive inhibition (C); ref Bauman et al. (2005)
[7] = molecular target: 5α-reductase type 2 (SRD5A2); details: ref Bull et al. (1996)

Structure (SMILES)	Km [1] [µM]	inhibition of AKR1D1, in words [3]	also measured
C[C@]12CCC(=O)C=C1CC[C@@H]1[C@@H]2[C@@H](O)C[C@@]2(C)[C@H]1CC[C@]2(O)C(=O)CO [Cortisol]	13.1 ± 1.8	–	–
C[C@]12C[C@H](O)[C@H]3[C@@H](CCC4=CC(=O)CC[C@@]43C)[C@@H]1CC[C@@H]2C(=O)CO [Corticosterone]	2.2 ± 0.5	–	–
CC(C)CCC[C@@H](C)[C@H]1CC[C@H]2[C@@H]3[C@H](O)CC4=CC(=O)CC[C@]4(C)[C@H]3CC[C@]12C [4-Cholesten-7α-ol-3-one]	0.8 ± 0.2	–	–
CC(C)CCC[C@@H](C)[C@H]1CC[C@H]2[C@@H]3CCC4=CC(=O)CC[C@]4(C)[C@H]3CC[C@]12C [Cholestenone]	0.3 ± 0.1	–	–
C[C@]12CCC(=O)C=C1CC[C@@H]1[C@@H]2C(=O)C[C@@]2(C)[C@H]1CC[C@]2(O)C(=O)CO [Cortisone]	15.1 ± 0.3	–	–
C[C@]12CCC(=O)C=C1CC[C@@H]1[C@@H]2CC[C@]2(C)C(=O)CC[C@@H]12 [Δ^4-Androstene-3,17-dione]	0.9 ± 0.2	–	–
C[C@]12CC[C@H]3[C@@H](CCC4=CC(=O)CC[C@@]43C)[C@@H]1CC[C@H]2O [Epitestosterone]	2.9 ± 0.6	–	–
NC(=O)C1=CN([C@@H]2O[C@H](COP(=O)(O)OP(=O)(O)OC[C@H]3O[C@@H](n4cnc5c(N)ncnc54)[C@H](OP(=O)(O)O)[C@@H]3O)[C@@H](O)[C@H]2O)C=CC1 [NADPH]	–	–	Kd [2]: 9 nM
O=C(O)c1ccc(C(=O)c2ccccc2)cc1 [4-Benzoylbenzoic acid]	–	ineffective	Type of inhibition (5β-reductase) [3]: n.i.; Ki [4]: 12500 nM; Ki [5]: 1900 nM; Ki [6]: 13300 nM
C[C@]12CC[C@H]3[C@@H](CCC4=CC(=O)CC[C@@H]43)[C@@H]1CC[C@@H]2O [4-Estren-l7β-ol-3-one]	3 ± 0.5	–	–
C[C@]12CC[C@H]3[C@@H](CCC4=CC(=O)C=C[C@@]43C)[C@@H]1CC[C@@H]2O [1,4-Androstadien-17β-ol-3-one]	3.2 ± 0.2	–	–
C[C@]12CC[C@H]3[C@@H](CCC4=CC(=O)CC[C@@]43C)[C@@H]1CC[C@@H]2O [Testosterone]	2.7 ± 1.2	–	–
C[C@H](CCC(=O)O)[C@H]1CC[C@H]2[C@@H]3[C@H](O)C[C@@H]4C[C@H](O)CC[C@]4(C)[C@H]3CC[C@]12C [Chenodeoxycholic acid]	–	weak non-competitive inhibitors	Ki [4]: 8300 nM; Ki [5]: 10000 nM; Ki [6]: 17 nM
COc1ccc2c(c1)c(CC(=O)O)c(C)n2C(=O)c1ccc(Cl)cc1 [Indomethacin]	–	ineffective	Type of inhibition (5β-reductase) [3]: n.i.
Cc1cccc(Nc2ccccc2C(=O)O)c1C [Mefenamic acid]	–	ineffective	Type of inhibition (5β-reductase) [3]: n.i.; Ki [4]: 800 nM
CC(C)(C)NC(=O)[C@H]1CC[C@H]2[C@@H]3CC[C@H]4NC(=O)C=C[C@]4(C)[C@H]3CC[C@]12C [Finasteride]	–	competitive inhibitor	Ki ([7]; competitive inhibition (C)): 26 nM; Ki ([7]; mechanism-based inhibition (MBI)): < 1 nM
C[C@H](CCC(=O)O)[C@H]1CC[C@H]2[C@@H]3[C@@H](O)C[C@@H]4C[C@H](O)CC[C@]4(C)[C@H]3CC[C@]12C [Ursodeoxycholic acid]	–	weak non-competitive inhibitors	Ki [4]: 4900 nM; Ki [5]: 1300 nM; Ki [6]: 11 nM
